Target: T1, human liver glycogen phosphorylase (Homo sapiens, UniProt P06737)
T1 construct: made in house; host or cells: Sf9 insect cells (suspension of disrupted cells, diluted in BES buffer, not purified)
T1 sequence (P06737 1-847): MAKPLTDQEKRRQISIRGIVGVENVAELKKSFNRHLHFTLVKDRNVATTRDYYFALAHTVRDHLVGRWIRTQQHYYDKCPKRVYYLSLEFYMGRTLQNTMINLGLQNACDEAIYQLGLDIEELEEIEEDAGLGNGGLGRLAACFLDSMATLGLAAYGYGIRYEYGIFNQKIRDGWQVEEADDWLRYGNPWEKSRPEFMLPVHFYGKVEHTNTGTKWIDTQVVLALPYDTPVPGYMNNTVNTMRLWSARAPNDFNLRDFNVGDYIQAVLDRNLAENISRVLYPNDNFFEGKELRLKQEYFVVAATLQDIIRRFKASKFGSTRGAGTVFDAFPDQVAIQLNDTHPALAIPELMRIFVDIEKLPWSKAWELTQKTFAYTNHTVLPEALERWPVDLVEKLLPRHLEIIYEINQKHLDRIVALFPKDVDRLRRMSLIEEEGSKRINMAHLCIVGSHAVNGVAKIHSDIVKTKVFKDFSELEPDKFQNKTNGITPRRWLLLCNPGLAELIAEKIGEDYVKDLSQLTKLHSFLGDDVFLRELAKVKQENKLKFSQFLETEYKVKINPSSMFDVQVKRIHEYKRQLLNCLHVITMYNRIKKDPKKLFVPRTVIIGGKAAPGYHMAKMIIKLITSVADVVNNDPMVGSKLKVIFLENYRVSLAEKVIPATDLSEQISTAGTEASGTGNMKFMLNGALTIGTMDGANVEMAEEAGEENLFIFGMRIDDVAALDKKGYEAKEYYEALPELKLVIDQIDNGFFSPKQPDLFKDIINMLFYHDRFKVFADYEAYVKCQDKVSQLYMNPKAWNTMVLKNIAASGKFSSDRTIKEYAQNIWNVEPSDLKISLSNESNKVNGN
Assay: Liver glycogen phosphorylase activity, forward reaction system (NADPH detection at 340 nm)
Format: biochemical
Conditions: enzyme inhibitory activity against recombinant human liver glycogen phosphorylase (Sf9 cell lysate), room temperature, 75 minutes
Protocol: The glycogen phosphorylase activity was determined by a method using a forward reaction system.
The following method was used to determine the glycogen phosphorylase activity using a forward reaction system. Glucose-1-phosphate generated from glycogen by glycogen phosphorylase was converted to glucono-δ-lactone-6-phosphate by transphosphorylation and dehydrogenation reactions using phosphoglucomutase and glucose-6-phosphate dehydrogenase (G6PDH). At this time, NADPH generated from NADP in the dehydrogenation reaction by G6PDH was detected.
An enzyme solution of human liver glycogen phosphorylase was obtained by diluting with 100 mmol/L BES buffer (pH 6.8, containing 2 mmol/L EDTA) a suspension disrupted Sf9 cells in which a recombinant human liver glycogen phosphorylase was forcibly expressed. Phosphate buffer (16 mmol/L KH2PO4, containing 24 mmol/L Na2HPO4) was used as a substrate solution. A mixture of 8 U/mL phosphoglucomutase and 60 U/mL G6PDH was prepared with BES buffer. A reaction buffer (1.4 mmol/L NADP, 30 mmol/L MgCl2, 8 μmol/L glucose-1,6-diphosphate, 8 mg/mL glycogen, 40 mmol/L BES, containing 0.8 mmol/L EDTA) and a glucose solution (75 mmol/L glucose and 100 mmol/L BES, containing 2 mmol/L EDTA) were prepared. A test substance was dissolved in 1% DMSO aqueous solution.
To a mixture of the glucose solution (20 μL), the substrate solution (20 μL), the reaction buffer (100 μL), and the test substance (20 μL), the recombinant human liver glycogen phosphorylase solution (20 μL), and a mixture (20 μL) of phosphoglucomutase and G6PDH were added to initiate an enzymatic reaction. To a control, 1% DMSO aqueous solution was added instead of the test substance. A solution to which the substrate was not added was used as a blank. After initiation of the reaction, absorbance at 340 nm was measured immediately. The reaction was performed at room temperature for 75 minutes, and then absorbance at 340 nm was measured again. The enzyme activity was obtained by deducting the change in absorbance of the blank for 75 minutes from the change in absorbance over 75 minutes. The inhibition rate (%) of the test substance was calculated by “(1−(enzyme activity of test substance)/(enzyme activity of control))×100”.
“IC50” represents an enzyme inhibitory activity against human liver glycogen phosphorylase.

Row | Compound | IC50 [nM]
1 | Cc1nc(COCc2ccccc2)oc1CNC(=O)c1cc(NC(=O)c2cc(F)c(F)cc2Cl)[nH]n1 [Example 1-47, 5-(2-chloro-4,5-difluoro-benzoylamino)-1H-pyrazole-3-carboxylic acid (2-benzyloxymethyl-4-methyl-oxazol-5-ylmethyl)-amide] | < 100
2 | CCOC(=O)COCc1nc(C)c(CNC(=O)c2cc(NC(=O)c3cc(F)c(F)cc3Cl)[nH]n2)o1 [Example 1-48, 5-(2-chloro-4,5-difluoro-benzoylamino)-1H-pyrazole-3-carboxylic acid (2-ethoxycarbonylmethoxymethyl-4-methyl-oxazol-5-ylmethyl)-amide] | < 100
3 | Cc1nc(Sc2ccccc2)oc1CNC(=O)c1cc(NC(=O)c2cc(F)c(F)cc2Cl)[nH]n1 [Example 1-49, 5-(2-chloro-4,5-difluoro-benzoylamino)-1H-pyrazole-3-carboxylic acid (4-methyl-2-phenylsulfanyl-oxazol-5-ylmethyl)-amide] | < 100
4 | COC(=O)c1nc(C)c(CNC(=O)c2cc(NC(=O)c3cc(F)c(F)cc3Cl)[nH]n2)o1 [Example 1-50, 5-(2-chloro-4,5-difluoro-benzoylamino)-1H-pyrazole-3-carboxylic acid (2-methoxycarbonyl-4-methyl-oxazol-5-ylmethyl)-amide] | < 100
5 | CCOC(=O)c1oc(CNC(=O)c2cc(NC(=O)c3cc(F)c(F)cc3Cl)[nH]n2)nc1C [Example 1-51, 5-(2-chloro-4,5-difluoro-benzoylamino)-1H-pyrazole-3-carboxylic acid (5-ethoxycarbonyl-4-methyl-oxazol-2-ylmethyl)-amide] | < 100
6 | O=C(NCc1nnc(-c2ccc(Cl)cc2)o1)c1cc(NC(=O)c2cc(F)c(F)cc2Cl)[nH]n1 [Example 1-52, 5-(2-chloro-4,5-difluoro-benzoylamino)-1H-pyrazole-3-carboxylic acid [5-(4-chloro-phenyl)-[1,3,4]oxadiazol-2-ylmethyl]-amide] | < 100
7 | Cc1ccccc1-c1nnc(CNC(=O)c2cc(NC(=O)c3cc(F)c(F)cc3Cl)[nH]n2)o1 [Example 1-53, 5-(2-chloro-4,5-difluoro-benzoylamino)-1H-pyrazole-3-carboxylic acid [5-(2-methyl-phenyl)-[1,3,4]oxadiazol-2-ylmethyl]-amide] | < 100
8 | CN(C)c1ccc(-c2nnc(CNC(=O)c3cc(NC(=O)c4cc(F)c(F)cc4Cl)[nH]n3)o2)cc1 [Example 1-54, 5-(2-chloro-4,5-difluoro-benzoylamino)-1H-pyrazole-3-carboxylic acid [5-(4-dimethylamino-phenyl)-[1,3,4]oxadiazol-2-ylmethyl]-amide] | < 100
9 | O=C(NCc1nnc(-c2ccc(C(F)(F)F)cc2)o1)c1cc(NC(=O)c2cc(F)c(F)cc2Cl)[nH]n1 [Example 1-55, 5-(2-chloro-4,5-difluoro-benzoylamino)-1H-pyrazole-3-carboxylic acid [5-(4-trifluoromethyl-phenyl)-[1,3,4]oxadiazol-2-ylmethyl]-amide] | > 300
10 | O=C(NCc1nnc(-c2cccc([N+](=O)[O-])c2)o1)c1cc(NC(=O)c2cc(F)c(F)cc2Cl)[nH]n1 [Example 1-56, 5-(2-chloro-4,5-difluoro-benzoylamino)-1H-pyrazole-3-carboxylic acid [5-(3-nitro-phenyl)-[1,3,4]oxadiazol-2-ylmethyl]-amide] | < 100
11 | O=C(NCc1nnc(-c2cccc(O)c2)o1)c1cc(NC(=O)c2cc(F)c(F)cc2Cl)[nH]n1 [Example 1-57, 5-(2-chloro-4,5-difluoro-benzoylamino)-1H-pyrazole-3-carboxylic acid [5-(3-hydroxy-phenyl)-[1,3,4]oxadiazol-2-ylmethyl]-amide] | < 100
12 | O=C(NCc1nnc(-c2ccccc2O)o1)c1cc(NC(=O)c2cc(F)c(F)cc2Cl)[nH]n1 [Example 1-58, 5-(2-chloro-4,5-difluoro-benzoylamino)-1H-pyrazole-3-carboxylic acid [5-(2-hydroxy-phenyl)-[1,3,4]oxadiazol-2-ylmethyl]-amide] | < 100
